Here are results for 15 compounds from patent US20080227790A1, “Pyridazinone Derivatives and their Use as Pde4 Inhibitors” (Altana Pharma AG, priority 2004, published 2008).

One data set deals with T1, PDE4B2 (Homo sapiens, UniProt Q07343).
T1 construct: made in house; host or cells: SF21 insect cells (baculovirus prepared in SF9 cells; pCR-Bac vector)
In words: Inhibition of PDE4B2 activity, modified [3H]cAMP SPA enzyme assay. The settings on record: recombinant PDE4B2 (GB no. M97515) expressed in SF21 cells; 0.5 μM cAMP; 15 min at 37° C.; read-out: PDE4 Inhibition [measured as −logIC50 (mol/l)] (converted). The class given is biochemical. The method, then:
PDE4B2 (GB no. M97515) was a gift of Prof. M. Conti (Stanford University, USA). It was amplified from the original plasmid (pCMV5) via PCR with primers Rb9 (5′-[…]-3′) and Rb10 (5′-[…]-3′) and cloned into the pCR-Bac vector (Invitrogen, Groningen, NL).
The recombinant baculovirus was prepared by means of homologous recombination in SF9 insect cells. The expression plasmids were cotransfected with Bac-N-Blue (Invitrogen, Groningen, NL) or Baculo-Gold DNA (Pharmingen, Hamburg) using a standard protocol (Pharmingen, Hamburg). Wt virus-free recombinant virus supernatants were selected using plaque assay methods. After that, high-titre virus supernatants were prepared by amplifying 3 times. PDE4B2 was expressed in SF21 cells by infecting 2×10^6 cells/ml with an MOI (multiplicity of infection) between 1 and 10 in serum-free SF900 medium (Life Technologies, Paisley, UK). The cells were cultured at 28° C. for 48-72 hours, after which they were pelleted for 5-10 min at 1000 g and 4° C.
The SF21 insect cells were resuspended, at a concentration of approx. 10^7 cells/ml, in ice-cold (4° C.) homogenization buffer (20 mM Tris, pH 8.2, containing the following additions: 140 mM NaCl, 3.8 mM KCl, 1 mM EGTA, 1 mM MgCl2, 10 mM β-mercaptoethanol, 2 mM benzamidine, 0.4 mM Pefablock, 10 μM leupeptin, 10 μM pepstatin A, 5 μM trypsin inhibitor) and disrupted by ultrasonication. The homogenate was then centrifuged for 10 min at 1000×g and the supernatant was stored at −80° C. until sub-sequent use (see below). The protein content was determined by the Bradford method (BioRad, Munich) using BSA as the standard.
PDE4B2 activity was inhibited by the compounds according to the invention in a modified SPA (scintillation proximity assay) test, supplied by Amersham Biosciences (see procedural instructions “phosphodiesterase [3H]cAMP SPA enzyme assay, code TRKQ 7090”), carried out in 96-well microtitre plates (MTP's). The test volume is 100 μl and contains 20 mM Tris buffer (pH 7.4), 0.1 mg of BSA (bovine serum albumin)/ml, 5 mM Mg^2+, 0.5 μM cAMP (including about 50,000 cpm of [3H]cAMP), 1 μl of the respective substance dilution in DMSO and sufficient recombinant PDE (1000×g supernatant, see above) to ensure that 10-20% of the cAMP is converted under the said experimental conditions. […] After a preincubation of 5 min at 37° C., the reaction is started by adding the substrate (cAMP) and the assays are incubated for a further 15 min; after that, they are stopped by adding SPA beads (50 μl). In accordance with the manufacturer's instructions, the SPA beads had previously been resuspended in water, but were then diluted 1:3 (v/v) in water; the diluted solution also contains 3 mM IBMX to ensure a complete PDE activity stop. After the beads have been sedimented (>30 min), the MTP's are analyzed in commercially available luminescence detection devices. The corresponding IC50 values of the compounds for the inhibition of PDE4B2 activity are determined from the concentration-effect curves by means of non-linear regression.

By melting point is commonly meant the temperature of the solid-liquid transition.

T1 sequence (Q07343 1-564 isoform Q07343-2): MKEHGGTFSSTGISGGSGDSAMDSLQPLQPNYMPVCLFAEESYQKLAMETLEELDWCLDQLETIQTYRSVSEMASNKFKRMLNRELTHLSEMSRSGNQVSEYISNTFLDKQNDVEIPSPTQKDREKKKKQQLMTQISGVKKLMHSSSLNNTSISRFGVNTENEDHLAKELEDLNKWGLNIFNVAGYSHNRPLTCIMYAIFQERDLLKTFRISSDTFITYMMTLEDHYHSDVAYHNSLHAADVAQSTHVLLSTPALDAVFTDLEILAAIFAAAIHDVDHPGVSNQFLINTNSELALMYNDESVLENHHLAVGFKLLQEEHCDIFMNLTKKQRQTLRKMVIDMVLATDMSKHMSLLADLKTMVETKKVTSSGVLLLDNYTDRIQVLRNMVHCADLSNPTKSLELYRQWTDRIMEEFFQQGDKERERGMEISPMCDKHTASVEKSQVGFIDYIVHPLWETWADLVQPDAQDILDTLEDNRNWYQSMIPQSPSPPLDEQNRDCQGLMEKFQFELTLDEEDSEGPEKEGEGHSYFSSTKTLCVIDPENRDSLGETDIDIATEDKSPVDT

Turning to `COc1ccc(C2=NN(c3ccc(C(=O)O)cc3)C(=O)C(C)(C)C2)cc1OC` [Compound 1, 4-(3-{3,4-dimethoxyphenyl}-5,5-dimethyl-6-oxo-5,6-dihydro-4H-pyridazin-1-yl)-benzoic acid], the melting point lay within 196 to 198 °C. Besides, the IC50 on PDE4B2 is 32.4 nM. The compound `COc1ccc(C2=NN(c3ccc(O)cc3)C(=O)C(C)(C)C2)cc1OC` [Compound 5, 6-(3,4-Dimethoxy-phenyl)-2-(4-hydroxy-phenyl)-4,4-dimethyl-4,5-dihydro-2H-pyridazin-3-one] displayed a melting point of 176 to 178 °C. Moreover, the IC50 on PDE4B2 was 6.03 nM. The matching figures for `COc1ccc(C2=NN(c3ccc(OCC(N)=O)cc3)C(=O)C(C)(C)C2)cc1OC` [Compound 7, 2-{4-[3-(3,4-Dimethoxy-phenyl)-5,5-dimethyl-6-oxo-5,6-dihydro-4H-pyridazin-1-yl]-phenoxy}-acetamide]: 184 to 187 °C and 10.5 nM. Compound `COc1ccc(C2=NN(c3ccc(N4CCOCC4)cc3)C(=O)C(C)(C)C2)cc1OC` [Compound 16, 6-(3,4-Dimethoxy-phenyl)-4,4-dimethyl-2-(4-morpholin-4-yl-phenyl)-4,5-dihydro-2H-pyridazin-3-one] returned a melting point of 178 to 179 °C.

Compound `COc1ccc(C2=NN(c3ccc(OCC(=O)N4CCN(C)CC4)cc3)C(=O)C(C)(C)C2)cc1OC.Cl` [Compound 9, 6-(3,4-Dimethoxy-phenyl)-4,4-dimethyl-2-{4-[2-(4-methyl-piperazin-1-yl)-2-oxo-ethoxy]-phenyl}-4,5-dihydro-2H-pyridazin-3-one hydrochloride] returned a melting point of 198 to 202 °C. The same measure, in the same setting: next, `COc1ccc(C2=NN(c3ccc(CC(=O)N4CCOCC4)cc3)C(=O)C(C)(C)C2)cc1OC` [Compound 14, 6-(3,4-Dimethoxy-phenyl)-4,4-dimethyl-2-[4-(2-morpholin-4-yl-2-oxo-ethyl)-phenyl]-4,5-dihydro-2H-pyridazin-3-one]: 165 to 167 °C. The compound `COc1ccc(C2=NN(c3ccc(C(=O)N4CCN(CC(=O)N5CCCC5)CC4)cc3)C(=O)C(C)(C)C2)cc1OC.Cl` [Compound 8, 6-(3,4-Dimethoxy-phenyl)-4,4-dimethyl-2-(4-{1-[4-(2-oxo-2-pyrrolidin-1-yl-ethyl)-piperazin-1-yl]-methanoyl}-phenyl)-4,5-dihydro-2H-pyridazin-3-one hydrochloride] returned a melting point of 144 to 146 °C. The IC50 at PDE4B2 was 7.59 nM. Compound `COc1ccc(C2=NN(c3ccc(Br)cc3)C(=O)C(C)(C)C2)cc1OC` [Compound 15, 2-(4-Bromo-phenyl)-6-(3,4-dimethoxy-phenyl)-4,4-dimethyl-4,5-dihydro-2H-pyridazin-3-one] returned a melting point of 123 to 124 °C.

With `COc1ccc(C2=NN(c3ccc(C(=O)N4CCN(c5ccncc5)CC4)cc3)C(=O)C(C)(C)C2)cc1OC.Cl.Cl` [Compound 4, 6-(3,4-Dimethoxy-phenyl)-4,4-dimethyl-2-{4-[1-(4-pyridin-4-yl-piperazin-1-yl)-methanoyl]-phenyl}-4,5-dihydro-2H-pyridazin-3-one dihydrochloride], the melting point was in the range of 223 to 225 °C. Besides, on PDE4B2, the IC50 is 7.76 nM. As to `COc1ccc(C2=NN(c3cccc(C(=O)N4CCOCC4)c3)C(=O)C(C)(C)C2)cc1OC` [Compound 13, 6-(3,4-Dimethoxy-phenyl)-4,4-dimethyl-2-[3-(1-morpholin-4-yl-methanoyl)-phenyl]-4,5-dihydro-2H-pyridazin-3-one], the melting point was in the range of 108 to 109 °C.

`COc1ccc(C2=NN(c3cccc(C(=O)O)c3)C(=O)C(C)(C)C2)cc1OC` [Compound 11, 3-[3-(3,4-Dimethoxy-phenyl)-5,5-dimethyl-6-oxo-5,6-dihydro-4H-pyridazin-1-yl]-benzoic acid] came in with a melting point of 165 to 167 °C. Turning to `COc1ccc(C2=NN(c3ccc(OCc4ccccc4)cc3)C(=O)C(C)(C)C2)cc1OC` [Compound 2, 2-(4-Benzyloxy-phenyl)-6-(3,4-dimethoxy-phenyl)-4,4-dimethyl-4,5-dihydro-2H-pyridazin-3-one], the melting point lay within 137 to 138 °C. The IC50 on PDE4B2 is 3.98 nM.

Take `COc1ccc(C2=NN(c3ccc(C(=O)N4CCN(CCN5CCOCC5)CC4)cc3)C(=O)C(C)(C)C2)cc1OC.Cl.Cl` [Compound 3, 6-(3,4-Dimethoxy-phenyl)-4,4-dimethyl-2-(4-{1-[4-(2-morpholin-4-yl-ethyl)-piperazin-1-yl]-methanoyl}-phenyl)-4,5-dihydro-2H-pyridazin-3-one dihydrochloride]: the melting point is 249 °C (dec.). Moreover, the IC50 at PDE4B2 was 11.2 nM. In the same order, the values of `COc1ccc(C2=NN(c3ccc(OCC(=O)N4CCOCC4)cc3)C(=O)C(C)(C)C2)cc1OC` [Compound 10, 6-(3,4-Dimethoxy-phenyl)-4,4-dimethyl-2-[4-(2-morpholin-4-yl-2-oxo-ethoxy)-phenyl]-4,5-dihydro-2Hpyridazin-3-one] are 74 to 79 °C and 15.5 nM. The matching figures for `COc1ccc(C2=NN(c3ccc(C(=O)N4CCOCC4)cc3)C(=O)C(C)(C)C2)cc1OC` [Compound 6, 6-(3,4-Dimethoxy-phenyl)-4,4-dimethyl-2-[4-(1-morpholin-4-yl-methanoyl)-phenyl]-4,5-dihydro-2H-pyridazin-3-one]: 165 to 166 °C and 1.74 nM.
